This is an account of results in patent US5750504A, “Antimicrobial proteins” (Zeneca Agrochemicals, priority 1996, dated 1998).

Assay [1] deals with Cladosporium sphaerospermum. Briefly: Antifungal activity assay (microspectrophotometry). To be noted: strain K0791, SF, inoculum Sp, period of incubation in AFP-solution 48. Format: cell-based. Here is the method:
(§1) Antifungal activity was measured by microspectrophotometry as previously described (Broekaert, 1990, FEMS Microbiol Lett, 69:55-60). Routinely, tests were performed with 20 μl of a (filter-sterilized) test solution and 80 μl of a suspension of fungal spores (2×10^4 spores/ml) in half strength potato dextrose broth (1/2 PDB). […] Control microcultures contained 20 μl of sterile distilled water and 80 μl of the fungal spore suspension.
(§2) Unless otherwise stated the test organism was Fusarium culmorum (strain IMI 180420) and incubation was done at 25° C. for 48 hours. Percent growth inhibition is defined as 100 times the ratio of the corrected absorbance of the control microculture minus the corrected absorbance of the test microculture over the corrected absorbance at 595 nm of the control microculture. The corrected absorbance values equal the absorbance at 595 nm of the culture measured after 48 hours minus the absorbance at 595 nm measured after 30 min.
(§3) The antifungal potency of the purified proteins was assessed on different plant pathogenic fungi, using the assay described in Example 1. Growth of fungi, collection and harvest of fungal spores and preparation of mycelial fragments were done as previously described (Broekaert et al, 1990, FEMS Microbiol Lett, 69:55-60). Serial dilutions of the antifungal proteins were applied to the fungi, either using growth medium SMF- (the synthetic growth medium of Example 1), medium SMF+ (medium SMF- supplemented with 1 mM CaCl2 and 50 mM KCl), growth medium 1/2 PDB- (half strength potato dextrose broth as in Example 1) or growth medium 1/2 PDB+ (medium 1/2 PDB- supplemented with 1 mM CaCl2 and 50 mM Kcl). The percent growth inhibition was measured by microspectrophotometry. The concentration required for 50% growth inhibition after 48 h of incubation (IC50 value) was calculated from the dose-reponse curves.
(§4) The abbreviations used are: IC50 =concentration required for 50% growth inhibition determined as described in Example 1; ND=not determined; Sp=spores; PrSp=spores pregerminated in the medium for 24 hours; MF=mycelial fragments preincubated for 48 hours in the medium prior to addition of the proteins; BHR=broad host range; SF=saprophytic fungus; SMF-=synthetic growth medium as described in Example 1; SMF+=SMF- supplemented with 1 mM CaCl2 and 50 mM KCl; 1/2PDB-=half strength potato dextrose broth as described in Example 1; 1/2PDB+=1/2PDB- supplemented with 1 mM CaCl2 and 50 mM KCl.

The subject of a further assay is Fusarium culmorum. The assay is described as follows: Antifungal activity assay (microspectrophotometry). To be noted: for IC50: host Cereals, inoculum Sp, period of incubation in AFP-solution 48. In kind it is cell-based. How it is done:
as §1, §2, §3, §4

The test system of the next assay is Mycoshpaerella fijiensis. Briefly: Antifungal activity assay (microspectrophotometry). In kind it is cell-based. The note with it: strain FUL549; host Musa; medium 1/2PDB+; inoculum MF; period of incubation in AFP-solution 96. Here is the method: as §1, §2, §3, §4
Another assay concerns Trichoderma viride. The assay is described as follows: Antifungal activity assay (microspectrophotometry). The note with it: strain K1127, SF, inoculum Sp, period of incubation in AFP-solution 48. In kind it is cell-based. Here is the method:
as §1, §2, §3, §4

Assay [2] addresses T1, Human α-amylase (human saliva) (Homo sapiens, UniProt P0DUB6).
T1 construct: the enzymes from insect gut and human saliva; purchased Sigma; host or cells: human saliva
T1 sequence (P0DUB6 16-511): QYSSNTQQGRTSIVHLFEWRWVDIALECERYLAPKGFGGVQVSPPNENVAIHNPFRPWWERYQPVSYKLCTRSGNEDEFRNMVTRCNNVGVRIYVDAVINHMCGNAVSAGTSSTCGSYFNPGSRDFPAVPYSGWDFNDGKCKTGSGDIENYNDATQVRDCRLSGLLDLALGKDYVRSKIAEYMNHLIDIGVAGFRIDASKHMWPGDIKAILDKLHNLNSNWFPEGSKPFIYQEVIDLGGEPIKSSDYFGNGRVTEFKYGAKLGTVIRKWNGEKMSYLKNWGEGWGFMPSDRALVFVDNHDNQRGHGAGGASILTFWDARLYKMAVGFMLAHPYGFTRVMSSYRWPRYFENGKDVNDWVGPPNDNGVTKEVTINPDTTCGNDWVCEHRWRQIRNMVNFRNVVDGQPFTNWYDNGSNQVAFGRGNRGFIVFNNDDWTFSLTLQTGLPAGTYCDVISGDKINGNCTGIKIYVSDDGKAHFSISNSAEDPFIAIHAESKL
The assay is described as follows: Inhibition of α-amylase. In kind it is biochemical. The note with it: human enzyme; rates as high as 200 μg/ml. How it is done:
(§5) A crude α-amylase extract was prepared from dissected guts of adult cockroaches (Blatta orientalis) by homogenising in 20 mM Tris/HCl, pH 7.5, 10 mM CaCl2 and removal of cell-debris by centrifugation. Human and porcine α-amylases were purchased from Sigma. Type 1-α-amylaseinhibitor from wheat (purchased from Sigma) was used as a positive control. Amylase extracts were incubated with peptides for 20 min at 30° C. prior to addition of starch and enzyme activity was detected using the method of Bernfeld (1955, Methods Enzymol, Colwick and Kaplan eds, vol 1:149-158).
(§6) The α-amylase inhibition activities of Hs-AFP1 and Ah-AMP1 were compared on α-amylases from the three sources to that of the Sorgum bicolor homologue SIα3, previously reported to inhibit insect gut α-amylases (Bloch and Richardson, 1991, FEBS Lett, 279:101-104). SIα3 inhibited the activity of the enzymes from insect gut and human saliva to greater than 70% at rates as low as 5 μg/ml.

The target of assay [3] is T2, porcine α-amylase (porcine pancreas) (Sus scrofa, UniProt P00690).
T2 construct: the enzyme from porcine pancreas; purchased Sigma; host or cells: porcine pancreas
T2 sequence (P00690 16-511): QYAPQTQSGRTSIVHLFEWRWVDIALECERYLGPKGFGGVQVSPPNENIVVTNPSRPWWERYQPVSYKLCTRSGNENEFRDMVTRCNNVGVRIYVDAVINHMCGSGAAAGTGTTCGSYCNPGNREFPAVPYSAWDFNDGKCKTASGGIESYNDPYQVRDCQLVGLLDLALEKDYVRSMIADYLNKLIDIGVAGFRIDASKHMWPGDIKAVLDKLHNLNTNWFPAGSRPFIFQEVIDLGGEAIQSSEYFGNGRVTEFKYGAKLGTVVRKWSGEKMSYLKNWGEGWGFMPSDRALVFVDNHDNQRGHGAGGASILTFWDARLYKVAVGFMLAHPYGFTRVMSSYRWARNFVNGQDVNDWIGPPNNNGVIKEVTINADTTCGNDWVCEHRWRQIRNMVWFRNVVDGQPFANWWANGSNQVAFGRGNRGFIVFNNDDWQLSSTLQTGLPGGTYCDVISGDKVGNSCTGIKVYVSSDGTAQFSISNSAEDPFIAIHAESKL
The assay is described as follows: Inhibition of α-amylase. Format: biochemical. To be noted: porcine enzyme; rates as high as 200 μg/ml. How it is done:
as §5, §6

The test system of assay [4] is hyphae of Fusarium culmorum. Briefly: Morphological effect on hyphae. Format: cell-based.

A word on the IC50: it is the concentration that gives 50% inhibition. “Ah-AMP1: Aesculus hippocastanum antimicrobial protein 1; 5 kDa polypeptide purified from seeds, 50 amino acids, SEQ ID NO 2 (LCNERPSQTWSGNCGNTAHCDKQCQDWEKASHGACHKRENHWKCFCYFNC)”: the IC50 is 12 µg/mL in assay [1] (medium 1/2PDB+); 0.5 µg/mL in assay [1] (medium 1/2PDB-); 25 µg/mL with Fusarium culmorum (strain IMI180420, medium SMF+); 1.5 µg/mL in the assay on Fusarium culmorum (strain IMI180420, medium SMF-); over 100 µg/mL in the assay on Fusarium culmorum (strain K0311, medium 1/2PDB+); 12 µg/mL with Fusarium culmorum (strain K0311, medium 1/2PDB-). Further, the IC50 with Mycoshpaerella fijiensis was 0.75 µg/mL; in the assay on Trichoderma viride (medium 1/2PDB+), over 100 µg/mL; in the assay on Trichoderma viride (medium 1/2PDB-), over 100 µg/mL. Moreover, the “inhibition of α-amylase activity” value in assay [2] and in assay [3] was “no inhibition” throughout. In addition, in assay [4], the “hyper-branching of hyphae of Fusarium culmorum” value was “does not cause hyper-branching”.

Regarding “Hs-AFP1: Heuchera sanquinea antifungal protein 1; 5 kDa polypeptide purified from seeds, 54 amino acids, SEQ ID NO 1 (DGVKLCDVPSGTWSGHCGSSSKCSQQCKDREHFAYGGACHYQFPSVKCFCKRQC)”, the IC50 in assay [1] (medium 1/2PDB+) was 3 µg/mL; in assay [1] (medium 1/2PDB-), 1 µg/mL; with Fusarium culmorum (strain IMI180420, medium SMF+), 1 µg/mL; in the assay on Fusarium culmorum (strain IMI180420, medium SMF-), 0.5 µg/mL; in the assay on Fusarium culmorum (strain K0311, medium 1/2PDB+) it was 3 µg/mL; in the assay with Fusarium culmorum (strain K0311, medium 1/2PDB-) it was 1 µg/mL. Moreover, the IC50 in the assay on Mycoshpaerella fijiensis was 12.5 µg/mL; in the assay on Trichoderma viride (medium 1/2PDB+), over 100 µg/mL; with Trichoderma viride (medium 1/2PDB-) it was 15 µg/mL. In addition, the “antifungal activity on Fusarium culmorum (in words)” value in the assay on Fusarium culmorum (in 1/2PDB+) is given as “highly active”. In addition, the “inhibition of α-amylase activity” value in assay [2] and in assay [3] was “no inhibition” each time. Further, the “hyper-branching of hyphae of Fusarium culmorum” value in assay [4] was “causes hyper-branching”.
